# Data as given in article PMC12486440, “Design, synthesis, and in silico studies of new benzofuran–pyrazole hybrids as multi-kinase inhibitors with potential antiproliferative activity” (RSC Advances, 2025).
# Columns and labels:
# [1] = test system: LOX IMVI; conditions: single dose 10 μM; melanoma
# [2] = test system: HCT-116; conditions: single dose 10 μM; colon cancer
# [3] = test system: SF-539; conditions: single dose 10 μM; CNS cancer
# [4] = test system: NCI-H226; conditions: single dose 10 μM; non-small lung carcinoma
# [5] = test system: RPMI-8226; conditions: single dose 10 μM; leukemia
# [6] = test system: MALME-3M; conditions: single dose 10 μM; melanoma
# [7] = test system: NCI 60 cancer cell line panel; assay: NCI 60 full panel summary; conditions: single dose 10 μM; mean over the NCI 60 panel
# [8] = test system: CCRF-CEM; conditions: single dose 10 μM; leukemia
# [9] = test system: SK-MEL-28; conditions: single dose 10 μM; melanoma
# [10] = test system: A498; conditions: single dose 10 μM; renal carcinoma
# [11] = test system: M14; conditions: single dose 10 μM; melanoma
# [12] = test system: UACC-257; conditions: single dose 10 μM; melanoma
# [13] = test system: SNB-19; conditions: single dose 10 μM; CNS cancer
# [14] = test system: NCI-H460; conditions: single dose 10 μM; non-small lung carcinoma
# [15] = test system: OVCAR-8; conditions: single dose 10 μM; ovarian carcinoma
# [16] = test system: K-562; conditions: single dose 10 μM; leukemia
# [17] = test system: MCF7; conditions: single dose 10 μM; breast carcinoma
# [18] = test system: IGROV1; conditions: single dose 10 μM; ovarian carcinoma
# [19] = test system: MDA-MB-468; conditions: single dose 10 μM; breast carcinoma
# [20] = test system: CAKI-1; conditions: single dose 10 μM; renal carcinoma
# [21] = test system: MDA-MB-435; conditions: single dose 10 μM; melanoma
# [22] = test system: NCI-H522; conditions: single dose 10 μM; non-small lung carcinoma
# [23] = test system: SK-MEL-2; conditions: single dose 10 μM; melanoma
# [24] = test system: DU-145; conditions: single dose 10 μM; prostate carcinoma
# [25] = test system: COLO 205; conditions: single dose 10 μM; colon cancer
# [26] = test system: SNB-75; conditions: single dose 10 μM; CNS cancer
# [27] = test system: HT29; conditions: single dose 10 μM; colon cancer
# [28] = test system: HL-60(TB); conditions: single dose 10 μM; leukemia
# [29] = test system: A549/ATCC; conditions: single dose 10 μM; non-small lung carcinoma
# [30] = test system: SW-620; conditions: single dose 10 μM; colon cancer
# [31] = test system: U251; conditions: single dose 10 μM; CNS cancer
# [32] = test system: OVCAR-4; conditions: single dose 10 μM; ovarian carcinoma
# [33] = test system: HCT-15; conditions: single dose 10 μM; colon cancer
# [34] = test system: TK-10; conditions: single dose 10 μM; renal carcinoma
# [35] = test system: NCI-H23; conditions: single dose 10 μM; non-small lung carcinoma
# [36] = test system: KM12; conditions: single dose 10 μM; colon cancer
# [37] = test system: SF-295; conditions: single dose 10 μM; CNS cancer
# [38] = test system: SN12C; conditions: single dose 10 μM; renal carcinoma
# [39] = test system: MOLT-4; conditions: single dose 10 μM; leukemia
# [40] = test system: OVCAR-3; conditions: single dose 10 μM; ovarian carcinoma
# [41] = test system: OVCAR-5; conditions: single dose 10 μM; ovarian carcinoma
# [42] = test system: UO-31; conditions: single dose 10 μM; renal carcinoma
# [43] = test system: UACC-62; conditions: single dose 10 μM; melanoma
# [44] = test system: RXF 393; conditions: single dose 10 μM; renal carcinoma
# [45] = test system: SK-MEL-5; conditions: single dose 10 μM; melanoma
# [46] = test system: PC-3; conditions: single dose 10 μM; prostate carcinoma
# [47] = test system: SF-268; conditions: single dose 10 μM; CNS cancer
# [48] = test system: SR; conditions: single dose 10 μM; leukemia
# [49] = test system: HOP-62; conditions: single dose 10 μM; non-small lung carcinoma
# [50] = test system: SK-OV-3; conditions: single dose 10 μM; ovarian carcinoma
# [51] = test system: T-47D; conditions: single dose 10 μM; breast carcinoma
# [52] = test system: HCC-2998; conditions: single dose 10 μM; colon cancer
# [53] = test system: EKVX; conditions: single dose 10 μM; non-small lung carcinoma
# [54] = test system: ACHN; conditions: single dose 10 μM; renal carcinoma
# [55] = test system: HOP-92; conditions: single dose 10 μM; non-small lung carcinoma
# [56] = test system: 786–0; conditions: single dose 10 μM; renal carcinoma
# [57] = test system: NCI/ADR-RES; conditions: single dose 10 μM; ovarian carcinoma
# [58] = test system: BT-549; conditions: single dose 10 μM; breast carcinoma
molecule,measurement,setting,value
"COc1ccc(C2=NNC(c3cn(-c4ccccc4)nc3-c3cc4ccccc4o3)C2)cc1OC (stereo not drawn) [3c, 3-(Benzofuran-2-yl)-4-(3-(3,4-dimethoxyphenyl)-4,5-dihydro-1H-pyrazol-5-yl)-1-phenyl-1H-pyrazole]",GI%,[1],65.24%
same,GI%,[2],74.37%
same,GI%,[3],56.77%
same,GI%,[4],68.39%
same,GI%,[5],88.22%
same,GI%,[6],30.46%
same,Mean GI%,[7],60.71%
same,GI%,[8],84.09%
same,GI%,[9],35.60%
same,GI%,[10],7.63%
same,GI%,[11],63.24%
same,GI%,[12],45.64%
same,GI%,[13],59.83%
same,GI%,[14],81.94%
same,GI%,[15],63.70%
same,GI%,[16],87.48%
same,GI%,[17],77.82%
same,GI%,[18],61.79%
same,GI%,[19],78.06%
same,GI%,[20],76.85%
same,GI%,[21],65.91%
same,GI%,[22],51.41%
same,GI%,[23],47.50%
same,GI%,[24],58.05%
same,GI%,[25],47.04%
same,GI%,[26],58.00%
same,GI%,[27],64.31%
same,GI%,[28],88.80%
same,GI%,[29],57.50%
same,GI%,[30],47.04%
same,GI%,[31],60.18%
same,GI%,[32],58.72%
same,GI%,[33],49.94%
same,GI%,[34],42.27%
same,GI%,[35],53.25%
same,GI%,[36],68.12%
same,GI%,[37],58.47%
same,GI%,[38],63.01%
same,GI%,[39],80.97%
same,GI%,[40],65.22%
same,GI%,[41],41.14%
same,GI%,[42],80.36%
same,GI%,[43],62.47%
same,GI%,[44],36.89%
same,GI%,[45],74.73%
same,GI%,[46],66.98%
same,GI%,[47],61.15%
same,GI%,[48],77.33%
same,GI%,[49],33.71%
same,GI%,[50],32.78%
same,GI%,[51],81.51%
same,GI%,[52],64.60%
same,GI%,[53],57.67%
same,GI%,[54],74.84%
same,GI%,[55],75.25%
same,GI%,[56],52.36%
"3-(5-(Benzofuran-2-yl)-1-phenyl-1H-pyrazol-3-yl)-1-(3,4-dimethoxyphenyl)prop-2-en-1-one [2c]",GI%,[2],0.17%
same,GI%,[3],4.21%
same,GI%,[4],1.83%
same,GI%,[5],4.63%
same,GI%,[6],5.86%
same,Mean GI%,[7],2.16%
same,GI%,[8],8.09%
same,GI%,[10],6.80%
same,GI%,[11],1.79%
same,GI%,[13],4.96%
same,GI%,[16],5.48%
same,GI%,[17],9.78%
same,GI%,[19],0.93%
same,GI%,[20],10.30%
same,GI%,[22],1.92%
same,GI%,[28],6.49%
same,GI%,[33],1.66%
same,GI%,[34],6.22%
same,GI%,[37],9.48%
same,GI%,[38],10.90%
same,GI%,[39],4.38%
same,GI%,[41],0.00%
same,GI%,[42],15.32%
same,GI%,[43],4.68%
same,GI%,[45],1.65%
same,GI%,[57],1.79%
same,GI%,[46],7.06%
same,GI%,[47],1.66%
same,GI%,[48],17.15%
same,GI%,[49],4.42%
same,GI%,[50],11.15%
same,GI%,[58],16.27%
same,GI%,[51],9.23%
same,GI%,[53],0.81%
same,GI%,[54],0.70%
same,GI%,[55],13.94%
same,GI%,[56],2.44%
